We go through eight compounds from ChEMBL document CHEMBL4673276, “Inhibition of the NorA efflux pump of S. aureus by (Z)-5-(4-Fluorobenzylidene)-Imidazolidines” (Bioorg Med Chem Lett, 2021).

Series [1] concerns Staphylococcus aureus. The series can be described thus: Antibacterial activity against Staphylococcus aureus SA-1199B. It counts as functional.
Series [2] deals with T1, Quinolone resistance protein NorA (Staphylococcus aureus) (UniProt P0A0J7).
T1 sequence (whole entry): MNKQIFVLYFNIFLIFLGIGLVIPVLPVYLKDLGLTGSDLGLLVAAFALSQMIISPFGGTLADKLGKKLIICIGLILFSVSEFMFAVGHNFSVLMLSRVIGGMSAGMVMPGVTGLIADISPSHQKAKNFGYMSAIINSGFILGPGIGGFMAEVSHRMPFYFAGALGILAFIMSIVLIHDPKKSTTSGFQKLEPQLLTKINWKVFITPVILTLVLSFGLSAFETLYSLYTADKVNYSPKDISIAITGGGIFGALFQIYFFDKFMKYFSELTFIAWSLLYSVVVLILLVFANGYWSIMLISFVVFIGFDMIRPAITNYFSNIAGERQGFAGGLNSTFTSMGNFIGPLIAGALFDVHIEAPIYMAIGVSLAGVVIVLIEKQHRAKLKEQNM
Briefly: Inhibition of NorA in Staphylococcus aureus SA-1199B assessed as potentiation of ciprofloxacin -mediated antibacterial activity by measuring maximal reduction in ciprofloxacin MIC.

Series [3] relates to Staphylococcus aureus. Briefly: Antibacterial activity against Staphylococcus aureus ATCC 25923. In kind it is functional.
Series [4] can be described thus: Toxicity in brine shrimp assessed as mortality at 1 mg/ml. The note with it: artemia salina, read-out: Activity.
The target of series [5] is T1, Quinolone resistance protein NorA (Staphylococcus aureus). Briefly: Inhibition of NorA in staphylococcus aureus SA-1199B assessed as increase in fluorescence emission of ethidium bromide accumulation for 25 mins by fluorometric assays.
Series [6] shares this target. Briefly: Inhibition of NorA in staphylococcus aureus SA-1199B assessed as ethidium bromide accumulation.
Series [7] shares this target. The series can be described thus: Inhibition of NorA in Staphylococcus aureus SA-1199B assessed as potentiation of norfloxacin-mediated antibacterial activity by measuring fold reduction in norfloxacin MIC.
For series [8] the target is unchanged. The series can be described thus: Inhibition of NorA in Staphylococcus aureus SA-1199B assessed as potentiation of norfloxacin-mediated antibacterial activity by measuring fold reduction in ciprofloxacin MIC.
Series [9] has the same target. The series can be described thus: Inhibition of NorA in Staphylococcus aureus SA-1199B assessed as potentiation of norfloxacin-mediated antibacterial activity by measuring maximal reduction in norfloxacin MIC.

In general, MIC refers to the smallest concentration in the dilution series that meets the test's criterion for growth inhibition. Low readings indicate inhibition by little substance, high ones a need for much substance.

Values after ≈ are worked out from the molar mass of the structure shown. Active and inactive are the calls of the source.

As for `O=C1NC(=S)N/C1=C\c1cccs1`, the MIC in the series on Staphylococcus aureus [1] is not below 1020 µg/mL.

Take `O=C1NC(=O)/C(=C/c2ccc(F)cc2)N1`: the MEC in series [2] and in [9] was 64 µg/mL throughout. In addition, the MIC in the series on Staphylococcus aureus [1] and against Staphylococcus aureus [3] was 512 µg/mL (≈ 2480 µM) in each case. The mortality at 1 mg/ml in series [4] was found to be 47%. The inhibition entry in series [5] and in series [6] was “Active” throughout. In addition, the results for the fold change (FC) in series [7] and in series [8] were 6.4 and 3.2, respectively.

As to `O=C1NC(=O)/C(=C/c2ccccn2)N1`, the MIC in the series with Staphylococcus aureus [1] was not below 1020 µg/mL.

For `O=C1NC(=O)/C(=C/c2cccs2)N1`, in the series with Staphylococcus aureus [1], the minimal inhibitory concentration (MIC) is not below 1020 µg/mL.

In turn, `CCn1cc(C(=O)O)c(=O)c2cc(F)c(N3CCNCC3)cc21` [NORFLOXACIN] gave an MIC against Staphylococcus aureus [1] of 64 µg/mL (≈ 200 µM).

Take `O=C1NC(=S)N/C1=C\c1ccc(F)cc1`: the MEC in series [2] and in series [9] was 64 µg/mL in each case. Moreover, the MIC in the series on Staphylococcus aureus [1] and in the series on Staphylococcus aureus [3] was 512 µg/mL (≈ 2300 µM) throughout. The mortality at 1 mg/ml in series [4] was 90%. The inhibition result in series [5] and in [6] was “Active” throughout. Moreover, the fold change (FC) in [7] turned out to be 4; in [8], 3.2.

As for `CN(C)CCCN1c2ccccc2Sc2ccc(Cl)cc21`, the inhibition result in series [5] is “Active”.

For the compound `O=C1NC(=S)N/C1=C\c1ccccn1`, the MIC against Staphylococcus aureus [1] was not below 1020 µg/mL.
